Assay results from PubChem BioAssay AID256 (DTP/NCI, 2004).
Toxic doses and inconclusive results are not listed. The calls were made as follows: active = survival T/C of 150% or more; inactive = T/C below 125% in these data.

Tested on: CD2F1 mice, L1210 leukemia ip, survival T/C
Assay: NCI In Vivo Anticancer Drug Screen. Data for tumor model L1210 Leukemia (intraperitoneal) in CD2F1 (CDF1) mice
Conditions: endpoint: mean survival time, higher = longer survival
Procedure, shortened: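 Each value reflects a quotient of treated over vehicle control outcomes in mice with a transplanted tumor.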

[1] = dose: 100.0 mg/kg/injection, schedule: Q01DX001 (ip), vehicle: saline with Tween-80
[2] = dose: 200.0 mg/kg/injection, schedule: Q01DX001 (ip), vehicle: saline with Tween-80
[3] = dose: 400.0 mg/kg/injection, schedule: Q01DX001 (ip), vehicle: saline with Tween-80
[4] = dose: 100.0 mg/kg/injection, schedule: Q01DX009 (ip), vehicle: saline with Tween-80
[5] = dose: 200.0 mg/kg/injection, schedule: Q01DX009 (ip), vehicle: saline with Tween-80
[6] = dose: 50.0 mg/kg/injection, schedule: Q01DX009 (ip), vehicle: saline with Tween-80
[7] = dose: 100.0 mg/kg/injection, schedule: Q04DX003 (ip), vehicle: saline with Tween-80
[8] = dose: 200.0 mg/kg/injection, schedule: Q04DX003 (ip), vehicle: saline with Tween-80
[9] = dose: 400.0 mg/kg/injection, schedule: Q04DX003 (ip), vehicle: saline with Tween-80

Measured: T/C

Nc1cc(=S)c2nnn(C3OC(CO)C(O)C3O)c2[nH]1 (stereo not drawn)
inactive: dose: 25.0 mg/kg/injection, schedule: Q01DX009 (ip), vehicle: water 100 % of control | dose: 50.0 mg/kg/injection, schedule: Q01DX009 (ip), vehicle: water 104 % of control | dose: 100.0 mg/kg/injection, schedule: Q01DX009 (ip), vehicle: water 93 % of control | dose: 200.0 mg/kg/injection, schedule: Q01DX009 (ip), vehicle: water 86 % of control | dose: 400.0 mg/kg/injection, schedule: Q01DX009 (ip), vehicle: water 89 % of control

C=C=CCCCCOC1CCCCO1 (stereo not drawn)
inactive: [1] 89 % of control | [2] 89 % of control | [3] 89 % of control

CN(C)c1ccc(/C=C/c2ccncc2)cc1
inactive: [4] 95 % of control | [5] 96 % of control | dose: 400.0 mg/kg/injection, schedule: Q01DX009 (ip), vehicle: saline with Tween-80 89 % of control

O[O][Sn][c]1ccccc1
inactive: [6] 93 % of control | [4] 89 % of control | [7] 100 % of control | [5] 91 % of control | [8] 97 % of control

O=C(O)C1=CCCC(O)CC1 (stereo not drawn)
inactive: [1] 95 % of control | dose: 100.0 mg/kg/injection, schedule: Q04DX002 (ip), vehicle: saline with Tween-80 100 % of control | [2] 94 % of control | dose: 200.0 mg/kg/injection, schedule: Q04DX002 (ip), vehicle: saline with Tween-80 96 % of control | [3] 95 % of control | dose: 400.0 mg/kg/injection, schedule: Q04DX002 (ip), vehicle: saline with Tween-80 103 % of control

COc1cc(N=C(N)N=C(N)N)c2ncccc2c1
inactive: dose: 100.0 mg/kg/injection, schedule: Q04DX002 (ip), vehicle: saline 90 % of control | dose: 200.0 mg/kg/injection, schedule: Q04DX002 (ip), vehicle: saline 90 % of control

CC(=O)OCC1OC(n2cnc3[nH]c(=S)[nH]c(=S)c32)C(OC(C)=O)C1OC(C)=O (stereo not drawn)
inactive: dose: 100.0 mg/kg/injection, schedule: Q01DX001 (ip), vehicle: saline 103 % of control | dose: 200.0 mg/kg/injection, schedule: Q01DX001 (ip), vehicle: saline 96 % of control | dose: 400.0 mg/kg/injection, schedule: Q01DX001 (ip), vehicle: saline 97 % of control

C=CCOCC(O)CN1CCCCC1 (stereo not drawn)
inactive: dose: 50.0 mg/kg/injection, schedule: Q01DX009 (ip), vehicle: saline 116 % of control | dose: 100.0 mg/kg/injection, schedule: Q01DX009 (ip), vehicle: saline 96 % of control

N/C(=N/O)c1cn(C2OC(CO)C(O)C2O)c2nc[nH]c(=O)c12 (stereo not drawn)
inactive: dose: 75.0 mg/kg/injection, schedule: Q01DX001 (ip), vehicle: water 119 % of control

N#C/C(=C\c1ccc(-c2ccccc2)cc1)c1ccc([N+](=O)[O-])cc1
inactive: [8] 86 % of control | [9] 94 % of control

NC(=Nc1ccccc1)SCCS(=O)(=O)O
inactive: [7] 102 % of control | [8] 100 % of control | [9] 104 % of control

O=C1OC2(c3ccccc31)c1ccccc1-c1ccccc12
inactive: [6] 97 % of control | [4] 100 % of control | [5] 100 % of control
